How the values were obtained:
goldfish = settings: in vivo
mice = settings: mouse, in vivo
[1] = in vivo

Substance	effects observed shortly after injection in goldfish (goldfish)	effects observed shortly after injection in mice (mice)	activity in formalin test (licking time) [1]
Xaa2-Cys-Lys-Thr-Asn-Lys-Met-Ser-Cys-Ser-Leu-His-Xaa1-Xaa1-Cys-Cys-Arg-Phe-Arg-Cys-Cys-Phe-His-Gly-Lys-Cys-Gln-Thr-Ser-Val-Phe-Gly-Cys-Xaa4-Val-Asp-Xaa3 [R11.19]	gasping (gills opening widely), followed by swimming backward or in circular and/or vertical motion, imbalanced swimming (body tilting), lying almost flat near the bottom and death	running and jumping in short duration immediately followed by convulsion with back legs kicking, copius urination, coma and death	
Gly-Xaa3-Ser-Phe-Cys-Lys-Ala-Asn-Gly-Lys-Xaa3-Cys-Ser-Xaa5-His-Ala-Asp-Cys-Cys-Asn-Cys-Cys-Leu-Ser-Gly-Ile-Cys-Lys-Xaa3-Ser-Thr-Asn-Val-Ile-Leu-Xaa3-Gly-Cys-Ser-Thr-Ser-Ser-Phe-Phe-Arg-Ile [R11.14]			active

Reference: patent US6767895B2 (priority 2000, dated 2004)
